The record followed here is patent publication US20250179066A1, “ZWITTERIONIC ANTIBACTERIAL COMPOUNDS” (Hoffmann-La Roche Inc., priority 2022, published 2025).

Structures can show the parent of a compound that is named as a salt.

For one test, the system named is Acinetobacter baumannii ATCC17961. The test can be described thus: Antimicrobial susceptibility testing: 90% growth inhibitory concentration (IC90) determination. The note with it: 90% growth inhibitory concentration against Acinetobacter baumannii ATCC17961, Iso-Sensitest broth, OD 600 nm over 16 h; read-out: ATCC 17961 IC90. The test is classed as cell-based. The procedure, abridged: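 OD600 monitored each minute over 16 h at 35±2° C for bacteria (~5×10^5 CFU/mL final) in Iso-Sensitest medium with 10-point twofold compound series (e.g. 10-0.0195 μM final). Concentration giving 90% growth inhibition in log phase reported as IC90.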
What is called IC90 is the point of the concentration-response curve where the effect stands at 90%. With `Cn1c(-c2cn(-c3cc4ccccc4s3)nc2C(F)(F)F)cnc1C(=O)Nc1ccc(C(=O)N2CCN(C(=O)C3CC[N+](CC(=O)O)(CC4CNC4)CC3)CC2)c(Cl)c1` (stereo not shown) [Example 95, 2-[1-(Azetidin-3-ylmethyl)-4-[4-[4-[[5-[1-(benzothiophen-2-yl)-3-(trifluoromethyl)pyrazol-4-yl]-1-methyl-imidazole-2-carbonyl]amino]-2-chloro-benzoyl]piperazine-1-carbonyl]piperidin-1-ium-1-yl]Acetic Acid; Formic Acid; Formate], the IC90 was 1760 nM.

The same test, now with this note: Acinetobacter baumannii, ATCC17961, 16 h, 90% growth inhibitory concentration against Acinetobacter baumannii ATCC17961, Iso-Sensitest broth, OD 600 nm over 16 h; read-out: ATCC 17961 IC90.
As to `Cn1c(-c2cn(-c3ccc4c(ccn4C(C)(C)C(N)=O)n3)nc2C(F)(F)F)cnc1C(=O)Nc1ccc(C(=O)N2CCN(C(=O)[C@H]3CC[N@+](CC(=O)O)(CC4CNC4)CC3)CC2)c(Cl)c1` [Example 138, cis-2-[4-[4-[4-[[5-[1-[1-(2-amino-1,1-dimethyl-2-oxo-ethyl)pyrrolo[3,2-b]pyridin-5-yl]-3-(trifluoromethyl)pyrazol-4-yl]-1-methyl-imidazole-2-carbonyl]amino]-2-chloro-benzoyl]piperazine-1-carbonyl]-1-(azetidin-3-ylmethyl)piperidin-1-ium-1-yl]acetic acid;chloride], the 90% effect concentration (IC90) stood at 408 nM.

Turning to `Cn1c(-c2cn(-c3ccc(NCCO)cn3)nc2C(F)(F)F)cnc1C(=O)Nc1ccc(C(=O)N2CCN(C(=O)[C@H]3CC[N@+](CC(=O)O)(CC4CNC4)CC3)CC2)c(Cl)c1` [Example 38, cis-2-[1-(azetidin-3-ylmethyl)-4-[4-[2-chloro-4-[[5-[1-[5-(2-hydroxyethylamino)-2-pyridyl]-3-(trifluoromethyl)pyrazol-4-yl]-1-methyl-imidazole-2-carbonyl]amino]benzoyl]piperazine-1-carbonyl]piperidin-1-ium-1-yl]acetic acid; formate], the 90% effect concentration (IC90) came to 430 nM.

As to `Cn1c(-c2cn(-c3ccc(O)cc3F)nc2C(F)(F)F)cnc1C(=O)Nc1ccc(C(=O)N2CCN(C(=O)[C@H]3CC[N@+](CC(=O)O)(CC4CNC4)CC3)CC2)c(Cl)c1` [Example 163, cis-2-[1-(azetidin-3-ylmethyl)-4-[4-[2-chloro-4-[[5-[1-(2-fluoro-4-hydroxy-phenyl)-3-(trifluoromethyl)pyrazol-4-yl]-1-methyl-imidazole-3-carbonyl]amino]benzoyl]piperazine-1-carbonyl]piperidin-1-ium-1-yl]acetic acid. 1:1 2,2,2-trifluoroacetate], the IC90 is 190 nM.

For `CNCCNc1ccc(-n2cc(-c3cnc(C(=O)Nc4ccc(C(=O)N5CCN(C(=O)C6CC[N+](CC(=O)O)(CC7CNC7)CC6)CC5)c(Cl)c4)n3C)c(C(F)(F)F)n2)nc1` (stereo not shown) [Example 4, 2-[1-(azetidin-3-ylmethyl)-4-[4-[2-chloro-4-[[1-methyl-5-[1-[5-[2-(methylamino)ethylamino]-2-pyridyl]-3-(trifluoromethyl)pyrazol-4-yl]imidazole-2-carbonyl]amino]benzoyl]piperazine-1-carbonyl]piperidin-1-ium-1-yl]acetic acid. 1:1 2,2,2-trifluoroacetate], the 90% effect concentration (IC90) was found to be 390 nM.

For the compound `Cn1c(-c2cn(-c3ccc4[nH]c(CC(N)=O)cc4n3)nc2C(F)(F)F)cnc1C(=O)Nc1ccc(C(=O)N2CCN(C(=O)[C@H]3CC[N@+](CC(=O)O)(CC4CNC4)CC3)CC2)c(Cl)c1` [Example 167, cis-2-[4-[4-[4-[[5-[1-[2-(2-amino-2-oxo-ethyl)-1H-pyrrolo[3,2-b]pyridin-5-yl]-3-(trifluoromethyl)pyrazol-4-yl]-1-methyl-imidazole-2-carbonyl]amino]-2-chloro-benzoyl]piperazine-1-carbonyl]-1-(azetidin-3-ylmethyl)piperidin-1-ium-1-yl]acetic acid;2,2,2-trifluoroacetate], the concentration for an effect of 90% (IC90) worked out at 715 nM.

In the case of `Cn1c(-c2cn(-c3ccc(Nc4ccccn4)cn3)nc2C(F)(F)F)cnc1C(=O)Nc1ccc(C(=O)N2CCN(C(=O)C3CC[N+](CC(=O)O)(CC4CNC4)CC3)CC2)c(Cl)c1` (stereo not shown) [Example 41, 2-[1-(azetidin-3-ylmethyl)-4-[4-[2-chloro-4-[[1-methyl-5-[1-[5-(2-pyridylamino)-2-pyridyl]-3-(trifluoromethyl)pyrazol-4-yl]imidazole-2-carbonyl]amino]benzoyl]piperazine-1-carbonyl]piperidin-1-ium-1-yl]acetic acid. 1:1 formate], the IC90 stood at 440 nM.

Turning to `Cn1c(-c2cn(-c3ccc4occc4n3)nc2C(F)(F)F)cnc1C(=O)Nc1ccc(C(=O)N2CCN(C(=O)C3CC[N+](CC(=O)O)(CC4CNC4)CC3)CC2)c(Cl)c1` (stereo not shown) [Example 63, 2-[1-(azetidin-3-ylmethyl)-4-[4-[2-chloro-4-[[5-[1-furo[3,2-b]pyridin-5-yl-3-(trifluoromethyl)pyrazol-4-yl]-1-methyl-imidazole-2-carbonyl]amino]benzoyl]piperazine-1-carbonyl]piperidin-1-ium-1-yl]acetic acid. 1:1 2,2,2-trifluoroacetate], the concentration for an effect of 90% (IC90) turned out to be 680 nM.

For `Cn1c(-c2cn(-c3cc4[nH]cc(C(=O)NCCO)c4cn3)nc2C(F)(F)F)cnc1C(=O)Nc1ccc(C(=O)N2CCN(C(=O)[C@H]3CC[N@+](CC(=O)O)(CC4CNC4)CC3)CC2)c(Cl)c1` [Example 146, cis-2-[1-(azetidin-3-ylmethyl)-4-[4-[2-chloro-4-[[5-[1-[3-(2-hydroxyethylcarbamoyl)-1H-pyrrolo[3,2-c]pyridin-6-yl]-3-(trifluoromethyl)pyrazol-4-yl]-1-methyl-imidazole-2-carbonyl]amino]benzoyl]piperazine-1-carbonyl]piperidin-1-ium-1-yl]acetic acid. 1:1 2,2,2-trifluoroacetate], the IC90 came to 311 nM.

As to `Cn1c(-c2cn(-c3ncc4[nH]ccc4n3)nc2C(F)(F)F)cnc1C(=O)Nc1ccc(C(=O)N2CCN(C(=O)[C@H]3CC[N@+](CC(=O)O)(CC4CNC4)CC3)CC2)c(Cl)c1` [Example 165, cis-2-[1-(azetidin-3-ylmethyl)-4-[4-[2-chloro-4-[[1-methyl-5-[1-(5H-pyrrolo[3,2-d]pyrimidin-2-yl)-3-(trifluoromethyl)pyrazol-4-yl]imidazole-2-carbonyl]amino]benzoyl]piperazine-1-carbonyl]piperidin-1-ium-1-yl]acetic acid;formate], the IC90 is 649 nM.

In the case of `Cn1c(-c2cn(-c3ccc(N)cc3F)nc2C(F)(F)F)cnc1C(=O)Nc1ccc(C(=O)N2CCN(C(=O)CCC[N+](CCCCN)(CCCCN)CC(=O)O)CC2)c(Cl)c1` [Example 11, bis(4-aminobutyl)-[4-[4-[4-[[5-[1-(4-amino-2-fluoro-phenyl)-3-(trifluoromethyl)pyrazol-4-yl]-1-methyl-imidazole-2-carbonyl]amino]-2-chloro-benzoyl]piperazino]-4-keto-butyl]-(carboxymethyl)ammonium. 1:1 2,2,2-trifluoroacetic acid. 1:1 2,2,2-trifluoroacetate], the 90% effect concentration (IC90) worked out at 170 nM.

With `Cn1c(-c2cn(-c3ccc(N)cn3)nc2C(F)(F)F)cnc1C(=O)Nc1ccc(C(=O)N2CC3CC4(C(=O)C5CC[N+](CC(=O)O)(CC6CNC6)CC5)CC(C2)N34)c(Cl)c1` (stereo not shown) [Example 92, 2-[4-[3-[4-[[5-[1-(5-amino-2-pyridyl)-3-(trifluoromethyl)pyrazol-4-yl]-1-methyl-imidazole-2-carbonyl]amino]-2-chloro-benzoyl]-3,9-diazabicyclo[3.3.1]nonane-9-carbonyl]-1-(azetidin-3-ylmethyl)piperidin-1-ium-1-yl]acetic acid. 1:1 formate], the IC90 turned out to be 1620 nM.

`Cc1cc(NC(=O)c2ncc(-c3cn(-c4ccc(O)cc4F)nc3C(F)(F)F)n2C)ccc1C(=O)N1CCN(C(=O)[C@H]2CC[N@@+](CCCN)(CC(=O)O)CC2)CC1` [Example 110, cis-2-[1-(3-aminopropyl)-4-[4-[4-[[5-[1-(2-fluoro-4-hydroxy-phenyl)-3-(trifluoromethyl)pyrazol-4-yl]-1-methyl-imidazole-2-carbonyl]amino]-2-methyl-benzoyl]piperazine-1-carbonyl]piperidin-1-ium-1-yl]acetic acid. 1:1 2,2,2-trifluoroacetate]: the IC90 was 207 nM.

Take `Cn1c(-c2cn(-c3ccc(N)cc3F)nc2C(F)(F)F)cnc1C(=O)Nc1ccc(C(=O)N2CCN(C(=O)N3CC[N+](CC(=O)O)(CC4CNC4)CC3)CC2)c(Cl)c1` [Example 140, 2-[4-[4-[4-[[5-[1-(4-amino-2-fluoro-phenyl)-3-(trifluoromethyl)pyrazol-4-yl]-1-methyl-imidazole-2-carbonyl]amino]-2-chloro-benzoyl]piperazine-1-carbonyl]-1-(azetidin-3-ylmethyl)piperazin-1-ium-1-yl]acetic acid. 1:1 2,2,2-trifluoroacetate]: the IC90 is 334 nM.

As to `CN(C)C(=O)c1cc2cnc(-n3cc(-c4cnc(C(=O)Nc5ccc(C(=O)N6CCN(C(=O)[C@H]7CC[N@+](CC(=O)O)(CC8CNC8)CC7)CC6)c(Cl)c5)n4C)c(C(F)(F)F)n3)cc2[nH]1` [Example 123, cis-2-[1-(azetidin-3-ylmethyl)-4-[4-[2-chloro-4-[[5-[1-[2-(dimethylcarbamoyl)-1H-pyrrolo[3,2-c]pyridin-6-yl]-3-(trifluoromethyl)pyrazol-4-yl]-1-methyl-imidazole-2-carbonyl]amino]benzoyl]piperazine-1-carbonyl]piperidin-1-ium-1-yl]acetic acid. 1:1 2,2,2-trifluoroacetate], the IC90 was determined as 216 nM.

As to `Cn1c(-c2cn(-c3ccc4[nH]c(CO)cc4n3)nc2C(F)(F)F)cnc1C(=O)Nc1ccc(C(=O)N2CCC(C(=O)N3CC[N+](CCCN)(CC(=O)O)CC3)CC2)c(Cl)c1` [Example 134, 2-[1-(3-aminopropyl)-4-[1-[2-chloro-4-[[1-methyl-5-[1-(2-methylol-1H-pyrrolo[3,2-b]pyridin-5-yl)-3-(trifluoromethyl)pyrazol-4-yl]imidazole-2-carbonyl]amino]benzoyl]isonipecotoyl]piperazin-1-ium-1-yl]acetic acid. 1:1 2,2,2-trifluoroacetate], the 90% effect concentration (IC90) turned out to be 327 nM.
